The target in assay [1] is T1, High affinity choline transporter 1 (Homo sapiens, UniProt Q9GZV3).
T1 sequence (Q9GZV3 whole entry): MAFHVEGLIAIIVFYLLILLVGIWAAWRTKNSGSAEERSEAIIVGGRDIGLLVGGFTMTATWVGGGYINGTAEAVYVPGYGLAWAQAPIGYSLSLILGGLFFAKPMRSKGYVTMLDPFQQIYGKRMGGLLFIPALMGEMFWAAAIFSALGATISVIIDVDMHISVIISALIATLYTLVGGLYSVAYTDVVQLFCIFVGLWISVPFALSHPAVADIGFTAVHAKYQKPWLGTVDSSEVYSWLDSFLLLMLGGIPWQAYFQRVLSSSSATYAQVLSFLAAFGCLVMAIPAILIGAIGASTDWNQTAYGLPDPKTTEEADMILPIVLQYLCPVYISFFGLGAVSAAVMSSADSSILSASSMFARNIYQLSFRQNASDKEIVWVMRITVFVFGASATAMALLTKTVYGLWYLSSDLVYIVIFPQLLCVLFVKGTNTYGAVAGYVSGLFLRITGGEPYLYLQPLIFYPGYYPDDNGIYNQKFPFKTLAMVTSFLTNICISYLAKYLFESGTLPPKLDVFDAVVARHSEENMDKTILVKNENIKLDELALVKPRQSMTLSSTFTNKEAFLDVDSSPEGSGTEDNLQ
Nature of the assay: CHT inhibitors, dose response, cell-based, 5-point CRC, membrane potential dye (AID 504840). The assay is classed as functional.

Assay [2] has as its target T1, High affinity choline transporter 1. Nature of the assay: CHT inhibitors, dose response, cell-based, 10-point CRC, membrane potential dye (AID 588401).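 Note: membrane potential dye fluorescence of choline-evoked depolarization via CHT.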 The assay is classed as functional.
Assay [3] addresses Melanin-concentrating hormone receptor 1 (Homo sapiens, UniProt Q99705). Kind of assay: Late-stage fluorescence-based counterscreen for antagonists of the G-protein coupled receptor 7 (GPR7): cell-based dose response assay to identify antagonists of the melanin-concentrating hormone receptor 1 (MCHR1) Set 6. Format: functional.
Assay [4] concerns the target T2, Neuropeptides B/W receptor type 1 (Homo sapiens, UniProt P48145).
T2 sequence (P48145 whole entry): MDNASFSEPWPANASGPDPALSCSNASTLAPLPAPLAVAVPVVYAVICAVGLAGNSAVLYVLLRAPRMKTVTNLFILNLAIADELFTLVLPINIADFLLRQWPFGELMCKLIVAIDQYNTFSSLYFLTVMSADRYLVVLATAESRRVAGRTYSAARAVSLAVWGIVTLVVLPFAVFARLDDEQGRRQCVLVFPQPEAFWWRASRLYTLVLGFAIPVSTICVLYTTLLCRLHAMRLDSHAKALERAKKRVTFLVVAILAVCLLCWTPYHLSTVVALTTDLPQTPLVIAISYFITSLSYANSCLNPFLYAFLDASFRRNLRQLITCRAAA
Kind of assay: GPR7 antagonist potency, late-stage follow-up, cell-based, fluorescence, dose response, set 6 (AID 588583). The assay is classed as functional.

Assay [5] addresses T3, Voltage-gated N-type calcium channel alpha-1B subunit/Amyloid beta A4 precursor protein-binding family A member 1 (Homo sapiens, UniProt Q00975+Q02410). Format: protein assay.
The target of assay [6] is T3, Voltage-gated N-type calcium channel alpha-1B subunit/Amyloid beta A4 precursor protein-binding family A member 1. Format: protein assay. The source holds these as a separate data set.
The next assay deals with CHO-K1. Kind of assay: Counterscreen for antagonists of the orexin 1 receptor (OX1R; HCRTR1): Homogeneous time resolved fluorescence (HTRF)-based cell-based dose response assay to identify antagonists of the parental CHO-K1 cell line. [Related pubchem assays (depositor defined):AID434989, AID435008, AID463079, AID485270, AID492963, AID492964, AID492965, AID493232, AID504699, AID504701]. The assay is classed as functional. The following applies: Cricetulus griseus. In general terms: Counterscreens check selectivity or assay interference.

The next assay deals with Trypsin (Sus scrofa, UniProt P00761). Kind of assay: porcine trypsin inhibitors, dose response, selectivity assay for Rce1 protease inhibitor project, biochemical, quenched peptide fluorescence, cherry-pick (AID 488789).
The nature of assay [7]: Counterscreen for antagonists of the orexin 1 receptor (OX1R; HCRTR1): Fluorescence-based cell-based high throughput dose response assay to identify antagonists of the parental CHO cell line. [Related pubchem assays (depositor defined):AID434989, AID435008, AID463079, AID485270, AID492963, AID492964, AID492965, AID493232, AID504699, AID504701]. Format: functional.
Assay [8] addresses T4, Orexin/Hypocretin receptor type 1 (Homo sapiens, UniProt O43613).
T4 sequence (O43613 whole entry): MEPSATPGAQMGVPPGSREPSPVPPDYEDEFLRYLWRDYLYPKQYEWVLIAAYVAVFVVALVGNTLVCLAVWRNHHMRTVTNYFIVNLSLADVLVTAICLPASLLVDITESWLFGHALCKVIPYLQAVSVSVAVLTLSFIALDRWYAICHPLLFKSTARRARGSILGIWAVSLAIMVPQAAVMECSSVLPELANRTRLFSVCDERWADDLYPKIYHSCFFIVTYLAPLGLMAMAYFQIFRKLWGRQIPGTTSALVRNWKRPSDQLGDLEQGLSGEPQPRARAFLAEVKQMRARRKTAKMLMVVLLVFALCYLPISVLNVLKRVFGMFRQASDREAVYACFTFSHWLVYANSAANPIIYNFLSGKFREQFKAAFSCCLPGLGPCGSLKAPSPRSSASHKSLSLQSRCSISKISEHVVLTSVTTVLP
Kind of assay: Homogeneous Time Resolved Fluorescence (HTRF)-based cell-based high throughput dose response assay for antagonists of the orexin 1 receptor (OX1R; HCRTR1). [Related pubchem assays (depositor defined):AID434989, AID435008, AID463079, AID485270, AID492963, AID492964, AID492965, AID493232, AID504717, AID504718]. Format: functional. (In general: In TR-FRET formats the signal depends on donor and acceptor labels being close together.)

In assay [9] the target is T4, Orexin/Hypocretin receptor type 1. Kind of assay: Fluorescence-based cell-based high throughput dose response assay for antagonists of the orexin 1 receptor (OX1R; HCRTR1). [Related pubchem assays (depositor defined):AID434989, AID435008, AID463079, AID485270, AID492963, AID492964, AID492965, AID493232, AID504717, AID504718]. The assay is classed as functional.
Assay [10] concerns the target T5, Orexin receptor type 2 (Homo sapiens, UniProt O43614).
T5 sequence (O43614 whole entry): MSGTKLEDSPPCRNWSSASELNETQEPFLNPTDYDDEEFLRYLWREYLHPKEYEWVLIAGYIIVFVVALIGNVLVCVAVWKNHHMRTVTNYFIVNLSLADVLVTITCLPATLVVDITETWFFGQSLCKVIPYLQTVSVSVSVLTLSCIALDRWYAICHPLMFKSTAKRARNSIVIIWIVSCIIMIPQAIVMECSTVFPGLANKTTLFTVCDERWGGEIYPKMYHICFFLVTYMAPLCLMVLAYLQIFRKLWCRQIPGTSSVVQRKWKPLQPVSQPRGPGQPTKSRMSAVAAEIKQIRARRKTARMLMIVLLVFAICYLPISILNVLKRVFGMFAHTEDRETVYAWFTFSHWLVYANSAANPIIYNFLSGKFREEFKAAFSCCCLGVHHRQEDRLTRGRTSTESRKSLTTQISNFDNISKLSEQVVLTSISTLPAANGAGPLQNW
Nature of the assay: Counterscreen assay for antagonists of the orexin 1 receptor (OX1R; HCRTR1): Fluorescence-based cell-based dose response assay for antagonists of the orexin 2 receptor (OX2R; HCRTR2), run by assay provider. The assay is classed as functional.

Assay [11] deals with T5, Orexin receptor type 2. Kind of assay: Counterscreen assay for antagonists of the orexin 1 receptor (OX1R; HCRTR1): Homogeneous Time Resolved Fluorescence (HTRF)-based cell-based dose response assay for antagonists of the orexin 2 receptor (OX2R; HCRTR2), run by assay provider. The assay is classed as functional.
The target in assay [12] is Aryl hydrocarbon receptor (Homo sapiens, UniProt P35869). The following applies: Potency.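 Note: confirmatory quantitative high-throughput screen measuring activation of the AhR signaling pathway.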
Sequence of Aryl hydrocarbon receptor (P35869 whole entry): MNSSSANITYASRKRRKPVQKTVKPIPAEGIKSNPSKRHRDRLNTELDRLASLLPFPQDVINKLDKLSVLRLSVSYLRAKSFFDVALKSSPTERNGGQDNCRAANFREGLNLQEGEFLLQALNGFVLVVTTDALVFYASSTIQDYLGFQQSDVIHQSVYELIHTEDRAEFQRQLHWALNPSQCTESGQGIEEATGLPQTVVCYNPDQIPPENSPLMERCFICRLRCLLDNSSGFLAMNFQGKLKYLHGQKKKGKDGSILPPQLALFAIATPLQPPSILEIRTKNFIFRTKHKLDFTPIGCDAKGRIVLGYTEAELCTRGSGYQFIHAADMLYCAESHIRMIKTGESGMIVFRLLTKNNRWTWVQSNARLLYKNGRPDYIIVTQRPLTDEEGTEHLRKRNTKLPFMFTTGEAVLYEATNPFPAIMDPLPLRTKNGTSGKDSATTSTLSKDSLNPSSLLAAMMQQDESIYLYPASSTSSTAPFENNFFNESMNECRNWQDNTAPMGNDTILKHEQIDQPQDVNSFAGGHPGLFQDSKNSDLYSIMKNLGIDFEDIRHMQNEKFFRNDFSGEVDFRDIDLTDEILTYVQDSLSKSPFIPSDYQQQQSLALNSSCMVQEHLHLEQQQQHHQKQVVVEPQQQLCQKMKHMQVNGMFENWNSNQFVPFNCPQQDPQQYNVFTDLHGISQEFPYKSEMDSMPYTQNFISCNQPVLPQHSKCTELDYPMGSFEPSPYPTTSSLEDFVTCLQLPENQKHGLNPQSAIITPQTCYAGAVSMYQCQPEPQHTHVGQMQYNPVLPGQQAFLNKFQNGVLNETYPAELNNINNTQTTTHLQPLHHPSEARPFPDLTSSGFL
The target of a further assay is Melanocortin receptor 4 (Homo sapiens, UniProt P32245). The assay is classed as functional, cell-based.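 Note: Cell-based assay with luminescence read-out, confirmatory dose-response testing for agonist activity of biased ligands at MC4R; human U2OS cells with tagged receptor and beta-arrestin; potency of agonists that increase receptor coupling to beta-arrestin.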
In assay [13] the target is Potassium voltage-gated channel subfamily KQT member 2 (Rattus norvegicus, UniProt O88943). Kind of assay: KCNQ2 potassium channel inhibitors, dose response, cell-based, automated electrophysiology, set II, rat KCNQ2 (AID 588637). Format: functional.
Assay [14] is described as follows: HEp-2 cell cytotoxicity, dose response, cytotoxicity control for RSV inhibitor project, HTS (AID 2410). Format: functional. The following applies: human respiratory syncytial virus.
In assay [15] the target is Heat shock protein HSP 90-alpha (Homo sapiens, UniProt P07900). Format: functional, organism-based.
For assay [16], the target named is T6, Polyadenylate-binding protein 1 (Homo sapiens, UniProt P11940). Nature of the assay: PABP1 MLLE–PAM2 interaction inhibitors, dose response, miRNA deadenylation inhibitor project, biochemical, fluorescence polarization, Cy5-PAM2 peptide, secondary (AID 602260). The assay is classed as functional. To be noted: read-out: IC50_Mean. Background: Polarisation of emitted light reports the rotation of a fluorescent probe.
T6 sequence (P11940 whole entry): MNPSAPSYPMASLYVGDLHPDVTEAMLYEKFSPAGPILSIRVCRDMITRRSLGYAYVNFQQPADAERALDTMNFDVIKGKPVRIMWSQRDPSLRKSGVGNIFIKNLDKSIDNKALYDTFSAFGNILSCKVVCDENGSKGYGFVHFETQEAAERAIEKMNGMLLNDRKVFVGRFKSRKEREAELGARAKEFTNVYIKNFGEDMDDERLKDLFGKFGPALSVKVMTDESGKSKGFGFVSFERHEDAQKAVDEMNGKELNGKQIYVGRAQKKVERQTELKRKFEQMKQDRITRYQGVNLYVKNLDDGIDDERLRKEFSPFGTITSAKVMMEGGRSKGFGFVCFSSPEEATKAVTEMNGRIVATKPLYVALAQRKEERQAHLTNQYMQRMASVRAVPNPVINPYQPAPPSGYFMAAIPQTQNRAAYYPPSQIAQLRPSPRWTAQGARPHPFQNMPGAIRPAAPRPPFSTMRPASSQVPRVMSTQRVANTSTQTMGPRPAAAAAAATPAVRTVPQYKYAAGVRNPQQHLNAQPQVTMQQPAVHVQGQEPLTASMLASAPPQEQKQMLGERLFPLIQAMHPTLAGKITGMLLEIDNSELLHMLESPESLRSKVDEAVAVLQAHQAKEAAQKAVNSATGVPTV

Assay [17] concerns the target Mitochondrial peptide methionine sulfoxide reductase (Bos taurus, UniProt P54149). Nature of the assay: Absorbance-based biochemical high throughput dose response assay for activators of Methionine sulfoxide reductase A (MsrA). Format: functional.
The target in assay [18] is T6, Polyadenylate-binding protein 1. Kind of assay: PABP1 MLLE–PAM2 binding inhibitor potency, dose response, biochemical, fluorescence polarization, FITC-PAM2 peptide (AID 602259). The assay is classed as functional. To be noted: read-out: IC50_Mean.
For another assay, the target named is Nonstructural protein 1 (Influenza A virus, UniProt Q194T2). The assay is classed as functional, Influenza A virus (A/California/07/2009(H1N1)).
Assay [19] can be described thus: AlphaScreen signal interference compounds, dose response, artefact control for ARNT-TACC3 interaction inhibitor project, biochemical, luminescence, cherry-pick (AID 651705).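 Note: AlphaScreen bead proximity signal that flags compounds interfering with the detection technology; potency reflects signal decrease which marks the compound as an assay artifact.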 Format: functional.

11 compounds from ChEMBL document CHEMBL1201862, “PubChem BioAssay data set” (2004) can be followed below.

Calls of active or inactive are those of the source.

What is called AC50 is the concentration giving half of the maximal activity seen. What is called EC50 is the concentration needed to bring the measured effect to its halfway point. A word on the CC50: it is the concentration at which the toxic effect on the cells reaches its halfway point.

Sequence of Melanin-concentrating hormone receptor 1 (Q99705 whole entry): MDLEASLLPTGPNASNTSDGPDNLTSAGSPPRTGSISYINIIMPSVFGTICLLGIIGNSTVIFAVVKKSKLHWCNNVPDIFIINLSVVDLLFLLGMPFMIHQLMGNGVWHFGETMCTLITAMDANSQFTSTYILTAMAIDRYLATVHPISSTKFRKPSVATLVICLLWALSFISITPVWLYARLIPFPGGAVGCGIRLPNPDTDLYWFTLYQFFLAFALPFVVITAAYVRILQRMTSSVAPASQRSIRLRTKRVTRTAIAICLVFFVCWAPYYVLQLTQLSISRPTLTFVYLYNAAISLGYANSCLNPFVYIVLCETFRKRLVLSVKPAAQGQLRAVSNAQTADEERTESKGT
T3 sequence (Q00975 whole entry): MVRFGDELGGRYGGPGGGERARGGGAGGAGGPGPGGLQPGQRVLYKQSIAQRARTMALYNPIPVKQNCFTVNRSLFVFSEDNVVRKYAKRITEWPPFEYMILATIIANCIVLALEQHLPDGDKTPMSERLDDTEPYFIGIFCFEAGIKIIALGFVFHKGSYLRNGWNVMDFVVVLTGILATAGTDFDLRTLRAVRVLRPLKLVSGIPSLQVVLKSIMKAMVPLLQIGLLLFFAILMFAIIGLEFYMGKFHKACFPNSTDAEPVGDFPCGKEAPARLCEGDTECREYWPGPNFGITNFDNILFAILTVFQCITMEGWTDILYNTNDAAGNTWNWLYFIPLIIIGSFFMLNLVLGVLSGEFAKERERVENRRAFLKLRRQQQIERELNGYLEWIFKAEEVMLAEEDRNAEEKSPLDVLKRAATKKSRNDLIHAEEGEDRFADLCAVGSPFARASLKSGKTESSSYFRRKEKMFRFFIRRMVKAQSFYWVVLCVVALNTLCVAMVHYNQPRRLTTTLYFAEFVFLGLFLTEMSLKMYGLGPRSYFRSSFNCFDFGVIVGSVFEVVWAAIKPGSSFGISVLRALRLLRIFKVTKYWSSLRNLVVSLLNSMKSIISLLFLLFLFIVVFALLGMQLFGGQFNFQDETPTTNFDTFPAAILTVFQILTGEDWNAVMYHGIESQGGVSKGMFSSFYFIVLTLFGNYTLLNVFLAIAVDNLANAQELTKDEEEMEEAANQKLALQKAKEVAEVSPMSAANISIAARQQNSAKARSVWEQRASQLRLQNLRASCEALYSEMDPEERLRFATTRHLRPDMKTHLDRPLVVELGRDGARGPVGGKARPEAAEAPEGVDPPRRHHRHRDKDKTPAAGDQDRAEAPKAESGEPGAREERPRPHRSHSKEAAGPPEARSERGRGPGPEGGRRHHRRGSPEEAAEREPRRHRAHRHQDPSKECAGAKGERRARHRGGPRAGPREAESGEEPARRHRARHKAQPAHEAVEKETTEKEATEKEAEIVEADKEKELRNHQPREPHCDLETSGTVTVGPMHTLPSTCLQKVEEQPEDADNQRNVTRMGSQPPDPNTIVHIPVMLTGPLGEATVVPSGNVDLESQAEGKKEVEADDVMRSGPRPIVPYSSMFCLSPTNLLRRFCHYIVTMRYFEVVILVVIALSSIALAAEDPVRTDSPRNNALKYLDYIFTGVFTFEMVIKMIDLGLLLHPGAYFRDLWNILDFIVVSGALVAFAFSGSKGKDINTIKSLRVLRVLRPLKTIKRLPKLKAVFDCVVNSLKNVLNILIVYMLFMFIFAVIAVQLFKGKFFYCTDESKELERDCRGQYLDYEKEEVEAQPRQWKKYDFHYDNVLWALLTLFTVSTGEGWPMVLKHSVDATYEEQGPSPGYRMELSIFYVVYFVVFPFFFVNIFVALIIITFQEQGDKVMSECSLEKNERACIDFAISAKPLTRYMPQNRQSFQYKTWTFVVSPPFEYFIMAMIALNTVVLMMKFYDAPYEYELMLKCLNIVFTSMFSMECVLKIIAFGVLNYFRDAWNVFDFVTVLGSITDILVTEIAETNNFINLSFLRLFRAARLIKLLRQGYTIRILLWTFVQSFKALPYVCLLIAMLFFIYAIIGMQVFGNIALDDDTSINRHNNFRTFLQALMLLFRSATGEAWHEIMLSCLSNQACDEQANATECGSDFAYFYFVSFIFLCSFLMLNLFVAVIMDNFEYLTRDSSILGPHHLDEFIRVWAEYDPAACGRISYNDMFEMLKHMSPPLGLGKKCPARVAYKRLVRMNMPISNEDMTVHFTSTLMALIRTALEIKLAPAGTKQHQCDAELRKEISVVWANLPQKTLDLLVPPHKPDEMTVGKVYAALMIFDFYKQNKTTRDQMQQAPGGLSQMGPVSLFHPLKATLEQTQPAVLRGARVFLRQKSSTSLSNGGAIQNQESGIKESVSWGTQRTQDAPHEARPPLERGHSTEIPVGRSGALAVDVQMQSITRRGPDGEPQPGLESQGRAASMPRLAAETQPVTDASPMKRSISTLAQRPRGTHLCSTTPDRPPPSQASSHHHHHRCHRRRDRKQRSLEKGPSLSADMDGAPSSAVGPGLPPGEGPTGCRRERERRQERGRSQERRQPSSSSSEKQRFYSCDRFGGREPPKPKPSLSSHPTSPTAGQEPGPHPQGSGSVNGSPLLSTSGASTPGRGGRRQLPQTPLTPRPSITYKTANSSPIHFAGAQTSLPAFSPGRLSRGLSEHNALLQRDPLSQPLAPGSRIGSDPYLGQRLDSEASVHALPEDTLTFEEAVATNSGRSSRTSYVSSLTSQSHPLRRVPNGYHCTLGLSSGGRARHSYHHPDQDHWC
T3 sequence (Q02410 whole entry): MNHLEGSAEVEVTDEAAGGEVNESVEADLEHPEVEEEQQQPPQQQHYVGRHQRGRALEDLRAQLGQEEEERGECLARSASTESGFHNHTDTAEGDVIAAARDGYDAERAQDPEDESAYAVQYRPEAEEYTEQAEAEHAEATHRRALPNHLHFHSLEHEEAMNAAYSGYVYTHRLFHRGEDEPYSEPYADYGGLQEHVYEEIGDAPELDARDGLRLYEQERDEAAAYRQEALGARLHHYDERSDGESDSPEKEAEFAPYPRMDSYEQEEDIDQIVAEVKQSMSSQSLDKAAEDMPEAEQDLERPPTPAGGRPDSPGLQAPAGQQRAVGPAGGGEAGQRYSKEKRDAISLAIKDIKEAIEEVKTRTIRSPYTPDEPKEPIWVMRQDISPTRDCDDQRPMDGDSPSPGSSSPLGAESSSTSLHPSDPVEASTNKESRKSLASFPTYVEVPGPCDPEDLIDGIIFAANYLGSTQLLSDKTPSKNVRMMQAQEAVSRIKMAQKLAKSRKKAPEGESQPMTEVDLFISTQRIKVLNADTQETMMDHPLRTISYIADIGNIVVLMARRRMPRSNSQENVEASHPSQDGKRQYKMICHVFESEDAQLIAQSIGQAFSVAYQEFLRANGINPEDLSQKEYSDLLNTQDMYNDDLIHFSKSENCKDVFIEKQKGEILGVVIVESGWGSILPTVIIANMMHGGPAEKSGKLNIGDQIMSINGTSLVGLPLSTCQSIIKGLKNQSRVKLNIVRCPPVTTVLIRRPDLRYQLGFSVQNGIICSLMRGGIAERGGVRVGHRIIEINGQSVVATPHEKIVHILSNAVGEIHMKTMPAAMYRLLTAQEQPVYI

`O=C(CSc1c2c(nc3ccc(Cl)cc13)CCCC2)NCCCN1CCOCC1`: the IC50 was 4.29 µM (active) in assay [1] and 4.47 µM (active) in [2].

Turning to `COc1ccc(Oc2c(CCl)cnn(Cc3cccc4ccccc34)c2=O)cc1`, the IC50 in assay [3] and in [4] was 2.87 µM (active) each time.

As for `O=C(CN1C(=O)/C(=C\c2cccc(Br)c2)Oc2ccccc21)NCC1CCCO1` (stereo not drawn), the IC50 is 4.98 µM (active) in assay [5]; > 50 µM (inactive) in [6]; > 66.2 µM (inactive) with CHO-K1; > 49.8 µM (inactive) in [7]; 0.314 µM (active) in assay [8]; 1.08 µM (active) in assay [9]. In addition, the IC50 is > 88.8 µM (inactive) at Orexin receptor type 2 [10] and > 50 µM (inactive) at Orexin receptor type 2 [11]. Besides, the AC50 on Trypsin was 4.3 µM (active).

Consider `Cc1cccc(NC(=O)[C@@H]2CCCN2S(=O)(=O)c2ccc(Cl)cc2)c1`, for which the IC50 in the assay with CHO-K1 is > 66.2 µM (inactive); in [7] it was > 49.7 µM (inactive); in assay [8], 0.153 µM (active); in assay [9] it was 4.23 µM (active); on Orexin receptor type 2 [10] it was 1.4 µM (active); at Orexin receptor type 2 [11], 0.37 µM (active).

With `O=[N+]([O-])Nc1nccn1Cc1ccc(Cl)nc1` [DEHYDROIMIDACLOPRID], the AC50 in assay [12] was 39.8 µM (inconclusive).

Take `O=C(NC(c1ccccc1)c1ccc2ccccc2n1)C1CCN(CCOc2ccc(Cl)cc2Cl)CC1` (stereo not drawn): the EC50 on Melanocortin receptor 4 was > 89.2 µM (inactive).

In the case of `COc1ccccc1CC(=O)NC1CCCc2ccccc21` (stereo not drawn), the IC50 in [13] is 9.28 µM (active).

Turning to `N#CCc1c(Cl)cnn(Cc2cccc3ccccc23)c1=O`, the IC50 in assay [3] and in [4] was 2.69 µM (active) throughout.

Turning to `Oc1c(Br)cc(Br)cc1/C=N\c1cccnc1`, in assay [14], the CC50 is 17.3 µM (active). Besides, in [15], the AC50 is 3.09 µM (active). The IC50 in [1] is 4.37 µM (active); in [2], 2.99 µM (active).

As to `CC(C)CNc1nc(S)nc(N(C)C)n1`, the IC50 in assay [16] and in assay [18] was > 66 µM (inactive) each time. Besides, in [17], the EC50 is > 104 µM (inactive).

Take `O=C(COC(=O)c1ccccn1)c1cccc(Br)c1`: the IC50 at Nonstructural protein 1 is 25.6 µM (active). For the same compound, in assay [19], the AC50 is 91 µM (active).
